Assay results as given in the supplement of paper PMC11061612.

Assays:
Carboplatin = compound: C1CC(C1)(C(=O)[O-])C(=O)[O-].N.N.[Pt+2] [Carboplatin]; conditions: max 10 µM
Summary of the method: (§1)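 Cancer cell lines in 1536-well plates (7.5 μl DMEM/F12 or RPMI, 10% FBS) were held 24 hours at 37°C and 5% CO2 and then dosed for 72 hours at a final DMSO of typically 0.2%. Viability was taken from CellTiter-Glo 2.0 luminescence, scaled between blank-well and DMSO-well means. Curves were fitted as two-parameter logistic models with a non-linear mixed effects model, from which the single-agent IC50 was taken.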

AZD5363 = compound: C1CN(CCC1(C(=O)N[C@@H](CCO)C2=CC=C(C=C2)Cl)N)C3=NC=NC4=C3C=CN4 [AZD5363]; conditions: max 10 µM
Summary of the method: as §1

AZD1775 = compound: C=CCn1c(=O)c2cnc(Nc3ccc(N4CCN(C)CC4)cc3)nc2n1-c1cccc(C(C)(C)O)n1 [AZD1775]; conditions: max 3 µM
Summary of the method: as §1

Trametinib = compound: CC(=O)Nc1cccc(-n2c(=O)n(C3CC3)c(=O)c3c(Nc4ccc(I)cc4F)n(C)c(=O)c(C)c32)c1 [Trametinib]; conditions: max 1 µM
Summary of the method: as §1

Paclitaxel = compound: CC(=O)O[C@H]1C(=O)[C@@]2(C)[C@H]([C@H](OC(=O)c3ccccc3)[C@]3(O)C[C@H](OC(=O)[C@H](O)[C@@H](NC(=O)c4ccccc4)c4ccccc4)C(C)=C1C3(C)C)[C@]1(OC(C)=O)CO[C@@H]1C[C@@H]2O [Paclitaxel]; conditions: max 3 µM
Summary of the method: as §1

Palbociclib = compound: CC(=O)c1c(C)c2cnc(Nc3ccc(N4CCNCC4)cn3)nc2n(C2CCCC2)c1=O [Palbociclib]; conditions: max 10 µM
Summary of the method: as §1

AZD1390 = compound: CC(C)n1c(=O)n(C)c2cnc3cc(F)c(-c4ccc(OCCCN5CCCCC5)nc4)cc3c21 [AZD1390]; conditions: max 0.3 µM
Summary of the method: as §1

Venetoclax = compound: CC1(C)CCC(CN2CCN(c3ccc(C(=O)NS(=O)(=O)c4ccc(NCC5CCOCC5)c([N+](=O)[O-])c4)c(Oc4cnc5[nH]ccc5c4)c3)CC2)=C(c2ccc(Cl)cc2)C1 [Venetoclax]; conditions: max 1 µM
Summary of the method: as §1

Dasatinib = compound: CC1=C(C(=CC=C1)Cl)NC(=O)C2=CN=C(S2)NC3=CC(=NC(=N3)C)N4CCN(CC4)CCO [Dasatinib]; conditions: max 2 µM
Summary of the method: as §1

SG3199 = compound: CC1=CN2[C@@H](C1)C=NC3=CC(=C(C=C3C2=O)OC)OCCCCCOC4=C(C=C5C(=C4)N=C[C@@H]6CC(=CN6C5=O)C)OC [SG3199]; conditions: max 0.001 µM
Summary of the method: as §1

AZD2811 = compound: CCN(CCO)CCCOc1ccc2c(Nc3cc(CC(=O)Nc4cccc(F)c4)[nH]n3)ncnc2c1 [AZD2811]; conditions: max 1 µM
Summary of the method: as §1

SN-38 = compound: CCc1c2c(nc3ccc(O)cc13)-c1cc3c(c(=O)n1C2)COC(=O)[C@]3(O)CC [SN-38]; conditions: max 0.3 µM
Summary of the method: as §1

AZD0156 = compound: CN(C)CCCOc1ccc(-c2ccc3ncc4c(c3c2)n(C2CCOCC2)c(=O)n4C)cn1 [AZD0156]; conditions: max 3 µM
Summary of the method: as §1

AZD4320 = compound: CN(CC[C@H](CSC1=CC=CC=C1)NC2=C(C=C(C=C2)S(=O)(=O)NC(=O)C3=CC=C(C=C3)N4CCC(CC4)[C@H](C5=CC=CC=C5C6=CC=C(C=C6)Cl)O)S(=O)(=O)C(F)(F)F)CCO [AZD4320]; conditions: max 1 µM
Summary of the method: as §1

Alisertib = compound: COc1cc(Nc2ncc3c(n2)-c2ccc(Cl)cc2C(c2c(F)cccc2OC)=NC3)ccc1C(=O)O [Alisertib]; conditions: max 10 µM
Summary of the method: as §1

Etoposide = compound: COc1cc([C@@H]2c3cc4c(cc3[C@@H](O[C@@H]3O[C@@H]5CO[C@@H](C)O[C@H]5[C@H](O)[C@H]3O)[C@H]3COC(=O)[C@H]23)OCO4)cc(OC)c1O [Etoposide]; conditions: max 10 µM
Summary of the method: as §1

Gefitinib = compound: COc1cc2ncnc(Nc3ccc(F)c(Cl)c3)c2cc1OCCCN1CCOCC1 [Gefitinib]; conditions: max 10 µM
Summary of the method: as §1

Prexasertib = compound: COc1cccc(OCCCN)c1-c1cc(Nc2cnc(C#N)cn2)n[nH]1 [Prexasertib]; conditions: max 1 µM
Summary of the method: as §1

Doxorubicin = compound: COc1cccc2c1C(=O)c1c(O)c3c(c(O)c1C2=O)C[C@@](O)(C(=O)CO)C[C@@H]3O[C@H]1C[C@H](N)[C@H](O)[C@H](C)O1 [Doxorubicin]; conditions: max 1 µM
Summary of the method: as §1

AZD5153 = compound: COc1nnc2ccc(N3CCC(c4ccc(OCCN5CCN(C)C(=O)[C@H]5C)cc4)CC3)nn12 [AZD5153]; conditions: max 1 µM
Summary of the method: as §1

Lapatinib = compound: CS(=O)(=O)CCNCc1ccc(-c2ccc3ncnc(Nc4ccc(OCc5cccc(F)c5)c(Cl)c4)c3c2)o1 [Lapatinib]; conditions: max 10 µM
Summary of the method: as §1

AZD8186 = compound: C[C@@H](Nc1cc(F)cc(F)c1)c1cc(C(=O)N(C)C)cc2c(=O)cc(N3CCOCC3)oc12 [AZD8186]; conditions: max 10 µM
Summary of the method: as §1

Crizotinib = compound: C[C@@H](Oc1cc(-c2cnn(C3CCNCC3)c2)cnc1N)c1c(Cl)ccc(F)c1Cl [Crizotinib]; conditions: max 10 µM
Summary of the method: as §1

Savolitinib = compound: C[C@@H](c1ccc2nccn2c1)n1nnc2ncc(-c3cnn(C)c3)nc21 [Savolitinib]; conditions: max 1 µM
Summary of the method: as §1

AZD6738 = compound: C[C@@H]1COCCN1C2=NC(=NC(=C2)C3(CC3)[S@](=N)(=O)C)C4=C5C=CNC5=NC=C4 [AZD6738]; conditions: max 10 µM
Summary of the method: as §1

AZD5991 = compound: Cc1c2c(nn1C)CSCc1cc(n(C)n1)CSc1cc(c3ccccc3c1)OCCCc1c(C(=O)O)n(C)c3c-2c(Cl)ccc13 [AZD5991]; conditions: max 1 µM
Summary of the method: as §1

AZD7648 = compound: Cc1cc2ncnn2cc1Nc1ncc2c(n1)n(C1CCOCC1)c(=O)n2C [AZD7648]; conditions: max 10 µM
Summary of the method: as §1

Taselisib = compound: Cc1nc(-c2cn3c(n2)-c2ccc(-c4cnn(C(C)(C)C(N)=O)c4)cc2OCC3)n(C(C)C)n1 [Taselisib]; conditions: max 10 µM
Summary of the method: as §1

Selumetinib = compound: Cn1cnc2c(F)c(Nc3ccc(Br)cc3Cl)c(C(=O)NOCCO)cc21 [Selumetinib]; conditions: max 10 µM
Summary of the method: as §1

SRA737 = compound: N#Cc1cnc(Nc2cc(NC[C@H]3CNCCO3)c(C(F)(F)F)cn2)cn1 [SRA737]; conditions: max 10 µM
Summary of the method: as §1

MK-2206 = compound: NC1(c2ccc(-c3nc4ccn5c(=O)[nH]nc5c4cc3-c3ccccc3)cc2)CCC1 [MK-2206]; conditions: max 10 µM
Summary of the method: as §1

Gemcitabine = compound: Nc1ccn([C@@H]2O[C@H](CO)[C@@H](O)C2(F)F)c(=O)n1 [Gemcitabine]; conditions: max 0.3 µM
Summary of the method: as §1

[1] = compound: O=C(Nc1ccc2[nH]nc(-c3ccncc3)c2c1)[C@@H]1CCN(CC(=O)N2CCN(c3ccc(-c4ncccn4)cc3)CC2)C1; conditions: max 5 µM
Summary of the method: as §1

Olaparib = compound: O=C(c1cc(Cc2n[nH]c(=O)c3ccccc23)ccc1F)N1CCN(C(=O)C2CC2)CC1 [Olaparib]; conditions: max 10 µM
Summary of the method: as §1

5-Fluorouracil = compound: O=c1[nH]cc(F)c(=O)[nH]1 [5-Fluorouracil]; conditions: max 20 µM
Summary of the method: as §1

Cell Line	IC50, cell viability 72 h (Carboplatin)	IC50, cell viability 72 h (AZD5363)	IC50, cell viability 72 h (AZD1775)	IC50, cell viability 72 h (Trametinib)	IC50, cell viability 72 h (Paclitaxel)	IC50, cell viability 72 h (Palbociclib)	IC50, cell viability 72 h (AZD1390)	IC50, cell viability 72 h (Venetoclax)	IC50, cell viability 72 h (Dasatinib)	IC50, cell viability 72 h (SG3199)	IC50, cell viability 72 h (AZD2811)	IC50, cell viability 72 h (SN-38)	IC50, cell viability 72 h (AZD0156)	IC50, cell viability 72 h (AZD4320)	IC50, cell viability 72 h (Alisertib)	IC50, cell viability 72 h (Etoposide)	IC50, cell viability 72 h (Gefitinib)	IC50, cell viability 72 h (Prexasertib)	IC50, cell viability 72 h (Doxorubicin)	IC50, cell viability 72 h (AZD5153)	IC50, cell viability 72 h (Lapatinib)	IC50, cell viability 72 h (AZD8186)	IC50, cell viability 72 h (Crizotinib)	IC50, cell viability 72 h (Savolitinib)	IC50, cell viability 72 h (AZD6738)	IC50, cell viability 72 h (AZD5991)	IC50, cell viability 72 h (AZD7648)	IC50, cell viability 72 h (Taselisib)	IC50, cell viability 72 h (Selumetinib)	IC50, cell viability 72 h (SRA737)	IC50, cell viability 72 h (MK-2206)	IC50, cell viability 72 h (Gemcitabine)	IC50, cell viability 72 h [1]	IC50, cell viability 72 h (Olaparib)	IC50, cell viability 72 h (5-Fluorouracil)
ES8 (Ewing's Sarcoma)	> 10000 nM	8220 nM	522 nM	> 1000 nM	< 3 nM	9500 nM	> 300 nM	> 1000 nM	> 2000 nM	> 1 nM	5.8 nM	1.41 nM	> 3000 nM	> 1000 nM	16.2 nM	358 nM	> 10000 nM	41.7 nM	79.8 nM	165 nM	> 10000 nM	> 10000 nM	1470 nM	> 1000 nM	3460 nM	> 1000 nM	> 10000 nM	800 nM	> 10000 nM	> 10000 nM	5790 nM	5.64 nM	> 5000 nM	3250 nM	> 20000 nM
DND-41 (T-Lymphoblastic Leukemia)	> 10000 nM	> 10000 nM	334 nM	> 1000 nM	> 3000 nM	> 10000 nM	> 300 nM	546 nM	> 2000 nM	> 1 nM	> 1000 nM	2.88 nM	> 3000 nM	33.8 nM	> 10000 nM	763 nM	> 10000 nM	6.75 nM	424 nM	595 nM	7510 nM	> 10000 nM	4770 nM	> 1000 nM	1500 nM	> 1000 nM	> 10000 nM	> 10000 nM	> 10000 nM	1090 nM	> 10000 nM	95.4 nM	> 5000 nM	> 10000 nM	> 20000 nM
ES1 (Ewing's Sarcoma)	> 10000 nM	> 10000 nM	784 nM	> 1000 nM	< 3 nM	2170 nM	> 300 nM	> 1000 nM	> 2000 nM	> 1 nM	510 nM	3.1 nM	> 3000 nM	> 1000 nM	2370 nM	335 nM	> 10000 nM	13.5 nM	101 nM	604 nM	> 10000 nM	8670 nM	2480 nM	> 1000 nM	1730 nM	435 nM	> 10000 nM	1050 nM	> 10000 nM	2000 nM	3970 nM	2.61 nM	> 5000 nM	4470 nM	9220 nM
BL-41 (Burkitt's Lymphoma)	> 10000 nM	> 10000 nM	264 nM	> 1000 nM	3.91 nM	> 10000 nM	> 300 nM	> 1000 nM	> 2000 nM	> 1 nM	48 nM	2.17 nM	> 3000 nM	> 1000 nM	28.5 nM	342 nM	> 10000 nM	3.67 nM	37.7 nM	46 nM	6100 nM	> 10000 nM	2440 nM	> 1000 nM	618 nM	48.2 nM	> 10000 nM	> 10000 nM	> 10000 nM	2000 nM	> 10000 nM	8.5 nM	> 5000 nM	> 10000 nM	> 20000 nM
NCI-H2818 (Mesothelioma)	> 10000 nM	> 10000 nM	> 3000 nM	> 1000 nM	745 nM	> 10000 nM	> 300 nM	> 1000 nM	> 2000 nM	> 1 nM	> 1000 nM	> 300 nM	> 3000 nM	> 1000 nM	> 10000 nM	> 10000 nM	> 10000 nM	> 1000 nM	> 1000 nM	> 1000 nM	> 10000 nM	> 10000 nM	> 10000 nM	> 1000 nM	> 10000 nM	> 1000 nM	> 10000 nM	> 10000 nM	> 10000 nM	> 10000 nM	> 10000 nM	> 300 nM	> 5000 nM	> 10000 nM	> 20000 nM
